Values quoted from earlier work as cited in US20260240147A1, “MANCOZEB NANOSUSPENSION AND PREPARATION METHOD THEREOF” (priority 2022, published 2026).

For “manganese ethylene bis(dithiocarbamate) polymeric complex with zinc salt coordination compound [mancozeb]”, the “solubility in most organic solvents” value is given as “insoluble” and the solubility in water (pH 7.5, 25° C.) is given as 6.2 µg/mL.
